# Results from US12686690B2, “Macrocyclic urea orexin receptor agonists” (Merck Sharp & Dohme LLC, priority 2020, dated 2026).
# Molecular target: T1, hOX2R (Homo sapiens, UniProt O43614)
# T1 construct: expressed in transfected cells; host or cells: CHO cells (G418 selection)
# T1 sequence (O43614 1-444): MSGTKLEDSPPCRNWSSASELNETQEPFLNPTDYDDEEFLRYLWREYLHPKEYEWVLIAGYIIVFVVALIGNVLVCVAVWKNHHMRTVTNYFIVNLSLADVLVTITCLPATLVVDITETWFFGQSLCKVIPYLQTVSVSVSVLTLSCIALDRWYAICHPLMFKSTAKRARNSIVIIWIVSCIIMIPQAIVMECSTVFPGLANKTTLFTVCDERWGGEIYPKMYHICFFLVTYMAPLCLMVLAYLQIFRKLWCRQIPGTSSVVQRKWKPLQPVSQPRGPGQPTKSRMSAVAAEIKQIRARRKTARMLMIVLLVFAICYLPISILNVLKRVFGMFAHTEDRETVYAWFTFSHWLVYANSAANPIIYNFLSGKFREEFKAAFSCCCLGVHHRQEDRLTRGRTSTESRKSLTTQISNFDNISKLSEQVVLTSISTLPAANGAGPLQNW
# Assay: hOX2R IPone assay (orexin receptor agonism)
# Assay type: cell-based
# Settings: IPone readout; for hOX2R_Ipone max %act: maximal activation; for EC50: orexin receptor agonist, read-out: hOX2R_IPone EC50
Compound,hOX2R_Ipone max %act [%],EC50 [nM]
"CCN1C(=O)N[C@@H](CCC(F)(F)F)CCCCCOc2nc(cn3ncnc23)-c2cc(ncc2OC)[C@H]1C [Example 82, (12R,16R)-13-ethyl-8-methoxy-12-methyl-16-(3,3,3-tri-fluoropropyl)-12,13, 16,17,18,19,20,21-octahydro-6,23-(azeno)-11,7-(metheno)[1,2,4]tria-zolo[5,1-c][1,4,10,13, 15]oxatetraazacyclo-henicosin-14(15H)-one]",99.62,2.2
"CCN1C(=O)NC(C2CCOC2)CCCCCOc2nc(cn3ccnc23)-c2cc(ncc2OC)[C@H]1C (stereo partly drawn) [Example 189, (3R,E)-4-ethyl-25-methoxy-3-methyl-7-(tetrahydrofuran-3-yl)-13-oxa-4,6-diaza-1(6,8)-imidazo[1,2-a]pyrazina-2(4,2)-pyridinacyclotridecaphan-5-one]",99.85,0.69
"CCN1C(=O)NC(C2CCCO2)CCCCCOc2nc(cn3ccnc23)-c2cc(ncc2OC)[C@H]1C (stereo partly drawn) [Example 193, (3R,E)-4-ethyl-25-methoxy-3-methyl-7-(tetrahydrofuran-2-yl)-13-oxa-4,6-diaza-1(6,8)-imidazo[1,2-a]pyrazina-2(4,2)-pyridinacyclotri-decaphan-5-one]",100.7,1.21
"CCC1CCCCCOc2nc(cn3ccnc23)-c2cc(ncc2OC)[C@@H](C)N(CC)C(=O)N1 (single isomer, unassigned) [Example 52B]",99.5,4.9
"CCN1C(=O)N[C@@H](CC(F)(F)F)CCCCOc2nc(cn3ncnc23)-c2cc(ncc2OC)C1C(F)(F)F (stereo partly drawn) [Example 38, (16R)-13-ethyl-8-methoxy-16-(2,2,2-trifluoroethyl)-12-(trifluoromethyl)-12,13,15,16,17,18,19,20-octahydro-14H-6,22-(azeno)-11,7-(metheno) [1,2,4]triazolo[5,1-c][1,4,10,13,15]oxatetra-azacycloicosin-14-one]",94.5,2390
"CCN1C(=O)NCCCN2CCCC2COc2nc(cn3ccnc23)-c2cccc(c2)[C@H]1C (mixture of isomers) [Example 4, (12R)-13-ethyl-12-methyl-12,13,15,16,17,18,21,22,22a, 23-decahydro-14H,20H-6,25-(azeno)-11,7-(metheno)imidazo[1,2-s]pyrrolo[2,1-c][1,4,8,10,19]oxatetraaza-cyclohenicosin-14-one]",79.4,3840
"CCN1C(=O)N[C@@H](CCC(F)(F)F)CCCCCOc2nc(cn3ccnc23)-c2nc(cnc2OC)[C@H]1C [Example 139, (3R,7R,E)-4-ethyl-23-methoxy-3-methyl-7-(3,3,3-trifluoropropyl)-13-oxa-4,6-diaza-1(6,8)-imidazo[1,2-a]pyrazina-2(2,6)-pyrazinacyclotridecaphan-5-one]",97.88,1.08
CCN1C(=O)NCCCNCCOc2nc(cn3ccnc23)-c2cccc(c2)[C@H]1C [Example 11],75.54,778
"CCN1C(=O)NC2CC2CCCCOc2cn3ccnc3c(n2)-c2cc(ncc2OC)C1C [Example 145, (3R,E)-4-ethyl-25-methoxy-3-methyl-12-oxa-4,6-diaza-1(6,8)-imidazo[1,2-a]pyrazina-2(4,2)-pyridina-7(1,2)-cyclopropanacyclododecaphan-5-one]",103.8,4.4
"CCN1C(=O)NC(C)CCCCCOc2nc(cn3ccnc23)-c2cccc(c2)[C@H]1C (mixture of isomers) [Example 18, (12R)-13-ethyl-12,16-dimethyl-12,13,16,17,18,19, 20,21-octahydro-6,23-(azeno)-11,7-(metheno) imidazo[2,1-c][1,4,13,15]oxatriaza-cyclohenicosin-14(15H)-one]",98.6,26.6
"CCN1C(=O)NC(CCC(F)(F)F)C(C)/C=C\COc2nc(cn3ccnc23)-c2cccc(c2)[C@H]1C (single isomer, unassigned) [Example 41B]",100.4,21.3
"CCN1C(=O)N[C@@H](CCC(F)(F)F)CCCCCOc2cc(cc3ccnn23)-n2nc(cc2C2CC2)C1C (mixture of isomers) [Example 210, (16E,22E,7R)-25-cyclopropyl-4-ethyl-3-methyl-7-(3,3,3-trifluoropropyl)-21H-13-oxa-4,6-diaza-1(5,7)-pyrazolo[1,5-a]pyridina-2(1,3)-pyrazolacyclotridecaphan-5-one]",102.8,5.24
"CCN1C(=O)NCCCCCCCOc2nc(cn3ccnc23)-c2cc(ncc2OC)[C@H]1C [Example 177, (R,E)-4-ethyl-25-methoxy-3-methyl-14-oxa-4,6-diaza-1(6,8)-imidazo[1,2-a]pyrazina-2(4,2)-pyridinacyclo-tetradecaphan-5-one]",100.5,62.5
"CCN1C(=O)N[C@@H](CCC(F)(F)F)CCCCCOc2nc(cn3ccnc23)-c2cc(nc3ccoc23)C1C (single isomer, unassigned) [Example 74B]",101.2,0.9
"CCN1C(=O)NC(CC(F)(F)CC)CCOCCOc2cn3ncnc3c(n2)-c2cc(ncc2C)C1C [Example 122, (3R,E)-7-(2,2-difluorobutyl)-4-ethyl-25,3-dimethyl-10,13-dioxa-4,6-diaza-1(6,8)-[1,2,4]triazolo[1,5-a]pyrazina-2(4,2)-pyridinacyclotridecaphan-5-one]",104.4,36.4
"(9R,13R,E)-14-Cyclopropyl-12-ethyl-13-methyl-9-(3,3,3-trifluoropropyl)-3-oxa-10,12-diaza-1(5,2)-thiazola-2(6,8)-imidazo[1,2-a]pyrazinacyclotridecaphan-11-one [Example 209]",99.62,1.1
"CCN1C(=O)NC(CCC(F)(F)F)CCOCCOc2cn3ncnc3c(n2)-c2ccnc(c2)C1C [Example 136, (3R,7S,E)-4-ethyl-3-methyl-7-(3,3,3-trifluoropropyl)-10,13-dioxa-4,6-diaza-1(6,8)-[1,2,4]triazolo[1,5-a]pyrazina-2(4,2)-pyridinacyclotridecaphan-5-one]",101.7,0.724
"CCN1C(=O)N[C@@H](CCC(F)(F)F)CCCCCOc2nc(cn3ccnc23)-c2cc(cnc2C)[C@H]1C [Example 78, (12R,16R)-13-ethyl-8,12-dimethyl-16-(3,3,3-trifluoropropyl)-12,13,16,17,18,19,20, 21-octahydro-6,23-(azeno)-11,7-(metheno)imidazo[2,1-c][1,4,9,13,15]oxatet-raazacyclohenicosin-14(15H)-one]",99.0,1.7
"CCN1C(=O)N[C@@H](CCC(F)(F)F)CCCCCOc2nc(cn3ccnc23)-c2cccc(n2)C1C (stereo partly drawn) [Example 90, (16R)-13-ethyl-12-methyl-16-(3,3,3-trifluoropropyl)-12,13,16,17,18,19,20, 21-octahydro-6,23:11,7-di(azeno) imidazo[2,1-c][1,4, 13,15]oxatriazacyclo-henicosin-14(15H)-one]",100.8,101
"CCN1C(=O)NC(COC(C)C)CCCCCOc2nc(cn3ccnc23)-c2cc(ncc2OC)[C@H]1C (stereo partly drawn) [Example 185, (3R,E)-4-ethyl-7-(isopropoxymethyl)-25-methoxy-3-methyl-13-oxa-4,6-diaza-1(6,8)-imidazo[1,2-a]pyrazina-2(4,2)-pyridinacyclotridecaphan-5-one]",102.1,2.03
"CCN1C(=O)N[C@@H](CCC(F)(F)F)CCCCCOc2nc(nn3ccnc23)-c2cccc(c2)[C@H]1C [Example 87, (12R,16R)-13-ethyl-12-methyl-16-(3,3,3-trifluoropropyl)-12,13,16,17,18,19,20, 21-octahydro-6,23-(azeno)-11,7-(metheno)imidazo[2,1-c][1,4,5,13,15] oxatetraazacycloheni-cosin-14(15H)-one]",100.6,5.8
"CCN1C(=O)N[C@@H](CCC(F)(F)F)CCCCCOc2nc(cn3ccnc23)-c2nc(co2)C1C (single isomer, unassigned) [Example 105B]",100,61.6
"CCN1C(=O)NC(CCC(F)(F)F)C(C)CCCOc2nc(cn3ccnc23)-c2cccc(c2)[C@H]1C (single isomer, unassigned) [Example 42C]",99.7,8.6
"CCCC1CCCCCOc2nc(cn3ccnc23)-c2cc(ncc2OC)[C@@H](C)N(CC)C(=O)N1 (single isomer, unassigned) [Example 54B]",100.7,1
"CCN1C(=O)NC(CCC(F)(F)F)CC(C)CCOc2nc(cn3ccnc23)-c2cccc(c2)[C@H]1C (single isomer, unassigned) [Example 48B]",99.9,88.8
"CCN1C(=O)NCCCCCOc2nc(cn3ncnc23)-c2cc(ncc2OC)C1C(F)(F)F (stereo not shown) [Example 35, 13-ethyl-8-methoxy-12-(trifluoromethyl)-12,13,15,16,17,18,19,20-octahydro-14H-6,22-(azeno)-11,7-(metheno) [1,2,4]triazolo[5,1-c][1,4,10,13,15]oxatetra-azacycloicosin-14-one]",82.8,4710
